# Assay results as given in US20240158446A1, “CYCLIC COMPOUND HAVING SELECTIVE INHIBITORY ACTION ON KRAS OVER HRAS AND NRAS” (CHUGAI SEIYAKU KABUSHIKI KAISHA, priority 2021, published 2024).
# How the values were obtained:
# [1] = target: GDP-bound NRAS wild-type protein (Homo sapiens, UniProt P01111); assay: Binding to NRAS by surface plasmon resonance (SPR), Single Cycle Kinetics; conditions: for NRAS/KRAS (ratio of KD value with respect to GDP-bound NRAS wild-type protein to KD value with respect to KRAS): SPR KD ratio NRAS/KRAS, class symbols
# [2] = target: GDP-bound HRAS wild-type protein (Homo sapiens, UniProt P01112); assay: Binding to HRAS by surface plasmon resonance (SPR), Single Cycle Kinetics; conditions: for HRAS/KRAS (ratio of KD value with respect to GDP-bound HRAS wild-type protein to KD value with respect to KRAS): SPR KD ratio HRAS/KRAS, class symbols
# [3] = SPR, GDP-bound NRAS wild-type protein vs GDP-bound KRAS wild-type protein, KD ratio class
# [4] = SPR, GDP-bound HRAS wild-type protein vs GDP-bound KRAS wild-type protein, KD ratio class
# [5] = SPR, GDP-bound NRAS wild-type protein vs GDP-bound KRAS wild-type protein
# [6] = SPR, GDP-bound HRAS wild-type protein vs GDP-bound KRAS wild-type protein
# GDP-bound HRAS wild-type protein, sequence (P01112 whole entry): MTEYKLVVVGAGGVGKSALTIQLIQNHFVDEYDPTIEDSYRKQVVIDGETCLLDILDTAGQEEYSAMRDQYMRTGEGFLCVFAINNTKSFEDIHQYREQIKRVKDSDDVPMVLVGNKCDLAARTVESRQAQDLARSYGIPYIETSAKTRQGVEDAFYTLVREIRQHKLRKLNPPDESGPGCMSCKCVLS
# GDP-bound NRAS wild-type protein, sequence (P01111 whole entry): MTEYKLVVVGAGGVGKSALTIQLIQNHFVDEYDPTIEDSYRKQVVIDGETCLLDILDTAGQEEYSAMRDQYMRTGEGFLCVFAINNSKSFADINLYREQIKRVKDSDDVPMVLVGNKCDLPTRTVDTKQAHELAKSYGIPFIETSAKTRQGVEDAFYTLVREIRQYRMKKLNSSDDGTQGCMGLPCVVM
Compound,"NRAS/KRAS (ratio of KD value for NRAS to KD value for KRAS) [1, 5]","HRAS/KRAS (ratio of KD value for HRAS to KD value for KRAS) [2, 6]",also measured
CCO[C@@H]1C[C@H]2C(=O)NC3(CCC3)C(=O)N(C)[C@@H](C(CC)CC)C(=O)N(C)[C@H](C(=O)N3CCOCC3)CC(=O)N(C)[C@@H](CC3CC3)C(=O)N[C@@H]([C@@H](C)CC)C(=O)N(C)CC(=O)N(C)[C@H]3C/C=C\CCN(C3=O)[C@@H](Cc3ccc(F)cc3)C(=O)N(C)CC(=O)N[C@@H](CCc3cc(F)c(C(F)(F)F)c(F)c3)C(=O)N2C1 [PP1527],,,"NRAS/KRAS (ratio of KD value for NRAS to KD value for KRAS) [1, 3]: A (a compound having 10 or more and less than 20 is denoted as A); HRAS/KRAS (ratio of KD value for HRAS to KD value for KRAS) [2, 4]: A (a compound having 10 or more and less than 20 is denoted as A)"
CCO[C@@H]1C[C@H]2C(=O)NC3(CC(C)(C)C3)C(=O)N(C)[C@@H](C(CC)CC)C(=O)N(C)[C@H](C(=O)N(C)C)CC(=O)N(C)[C@@H](CC(C)C)C(=O)N[C@@H]([C@@H](C)CC)C(=O)N(C)CC(=O)N(C)[C@H]3C/C=C\CCN(C3=O)[C@@H](Cc3ccc(C)cc3)C(=O)N(C)CC(=O)N[C@@H](CCc3cc(F)c(C(F)(F)F)c(F)c3)C(=O)N2C1 [PP2141],A (a compound having 10 or more and less than 20 is denoted as A),A (a compound having 10 or more and less than 20 is denoted as A),
C=CC[C@@H]1NC(=O)[C@H](CC2CC2)N(C)C(=O)C[C@@H](C(=O)N(C)CC=C)N(C)C(=O)[C@H](C2CCCC2)N(C)C(=O)C2(CCC2)NC(=O)[C@@H]2C[C@@H](OCC)CN2C(=O)[C@H](CCc2cc(F)c(C(F)(F)F)c(F)c2)NC(=O)CN(C)C(=O)[C@H](Cc2ccc(C(F)(F)F)cc2)N2CC/C=C\C[C@@H](C2=O)N(C)C(=O)CN(C)C1=O [PP1557],,,"NRAS/KRAS (ratio of KD value for NRAS to KD value for KRAS) [1, 3]: A (a compound having 10 or more and less than 20 is denoted as A); HRAS/KRAS (ratio of KD value for HRAS to KD value for KRAS) [2, 4]: A (a compound having 10 or more and less than 20 is denoted as A)"
CCCOC[C@H]1C(=O)N[C@@H]([C@@H](C)CC)C(=O)N(C)CC(=O)N(C)[C@H]2C/C=C\CCN(C2=O)[C@@H](Cc2ccc(C)cc2)C(=O)N(C)CC(=O)N[C@@H](CCc2ccc(C(F)(F)F)c(OC)c2)C(=O)N2C[C@H](OCC)C[C@H]2C(=O)N(C)C2(CCC2)C(=O)N(C)[C@@H](C(CC)CC)C(=O)N(C)[C@H](C(=O)N(C)C)CC(=O)N1C [PP2323],A (a compound having 10 or more and less than 20 is denoted as A),A (a compound having 10 or more and less than 20 is denoted as A),
CCOC[C@H]1C(=O)N[C@@H]([C@@H](C)CC)C(=O)N(C)CC(=O)N(C)[C@H]2CCCCCN(C2=O)[C@@H](Cc2ccc(C(F)(F)F)cc2)C(=O)N(C)CC(=O)N[C@@H](CCc2cc(F)c(C(F)(F)F)c(F)c2)C(=O)N2C[C@H](OCC)C[C@H]2C(=O)NC2(CCC2)C(=O)N(C)[C@@H](C2CCCC2)C(=O)N(C)[C@H](C(=O)N2CCOCC2)CC(=O)N1C [PP0851],B (a compound having 3 or more and less than 10 is denoted as B),B (a compound having 3 or more and less than 10 is denoted as B),
CCO[C@@H]1C[C@H]2C(=O)NC3(CCC3)C(=O)N(C)[C@@H](C3CCCC3)C(=O)N(C)[C@H](C(=O)N3CCOCC3)CC(=O)N(C)[C@@H](CC3CCCCC3)C(=O)N[C@@H]([C@@H](C)CC)C(=O)N(C)CC(=O)N(C)[C@H]3CCCCCN(C3=O)[C@@H](Cc3ccc(C(F)(F)F)cc3)C(=O)N(C)CC(=O)N[C@@H](CCc3cc(F)c(C(F)(F)F)c(F)c3)C(=O)N2C1 [PP0686],,,"NRAS/KRAS (ratio of KD value with respect to NRAS to KD value with respect to KRAS) [1, 5]: B (a compound having 3 or more and less than 10 is denoted as B); HRAS/KRAS (ratio of KD value with respect to HRAS to KD value with respect to KRAS) [2, 6]: B (a compound having 3 or more and less than 10 is denoted as B)"
CCO[C@@H]1C[C@H]2C(=O)NC3(CC(C)(C)C3)C(=O)N(C)[C@@H](C3CCCC3)C(=O)N(C)[C@H](C(=O)N(C)CC)CC(=O)N(C)[C@H]3C/C=C/c4ccc(cc4)C[C@@H](C(=O)N(C)CC(=O)N[C@@H](CCc4ccc(Cl)c(Cl)c4)C(=O)N2C1)N1CC/C=C\C[C@@H](C1=O)N(C)C(=O)CN(C)C(=O)[C@H]([C@@H](C)CC)NC3=O [PP3056],A (a compound having 10 or more and less than 20 is denoted as A),A (a compound having 10 or more and less than 20 is denoted as A),
CCC[C@H]1C(=O)N[C@@H]([C@@H](C)CC)C(=O)N(C)CC(=O)N(C)[C@H]2C/C=C\CCN(C2=O)[C@@H](Cc2ccc(C(F)(F)F)cc2)C(=O)N(C)CC(=O)N[C@@H](CCc2cc(F)c(C(F)F)c(OC)c2)C(=O)N2C[C@H](OCC)C[C@H]2C(=O)NC2(CC(C)(C)C2)C(=O)N(C)[C@@H](C2CCCC2)C(=O)N(C)[C@H](C(=O)N(C)C)CC(=O)N1C [PP2867],,,NRAS/KRAS (ratio of KD value with respect to GDP-bound NRAS wild-type protein to KD value with respect to KRAS) [1]: A (a compound having 10 or more and less than 20 is denoted as A); HRAS/KRAS (ratio of KD value with respect to GDP-bound HRAS wild-type protein to KD value with respect to KRAS) [2]: A (a compound having 10 or more and less than 20 is denoted as A)
CCCN(C)C(=O)[C@@H]1CC(=O)N(C)[C@@H](C2CC2)C(=O)N[C@@H]([C@@H](C)CC)C(=O)N(C)CC(=O)N(C)[C@H]2C/C=C\CCN(C2=O)[C@@H](Cc2ccc(C(F)(F)F)cc2)C(=O)N(C)CC(=O)N[C@@H](CCc2cc(F)c(C(F)(F)F)c(F)c2)C(=O)N2C[C@H](OCC)C[C@H]2C(=O)NC2(CC(C)(C)C2)C(=O)N(C)[C@@H](C2CCCC2)C(=O)N1C [PP2037],A (a compound having 10 or more and less than 20 is denoted as A),A (a compound having 10 or more and less than 20 is denoted as A),
CCC(CC)[C@H]1C(=O)N(C)[C@H](C(=O)N(C)C)CC(=O)N(C)[C@@H](COC)C(=O)N[C@@H]([C@@H](C)CC)C(=O)N(C)CC(=O)N(C)[C@H]2C/C=C\CCN(C2=O)[C@@H](Cc2ccc(C)cc2)C(=O)N(C)CC(=O)N[C@@H](CCc2ccc(C(F)(F)F)c(OC)c2)C(=O)N2CCCC[C@H]2C(=O)NC2(CC(C)(C)C2)C(=O)N1C [PP2937],,,NRAS/KRAS (ratio of KD value with respect to GDP-bound NRAS wild-type protein to KD value with respect to KRAS) [1]: A (a compound having 10 or more and less than 20 is denoted as A); HRAS/KRAS (ratio of KD value with respect to GDP-bound HRAS wild-type protein to KD value with respect to KRAS) [2]: A (a compound having 10 or more and less than 20 is denoted as A)
CC[C@H](C)[C@@H]1NC(=O)[C@H](CC(C)C)N(C)C(=O)C[C@@H](C(=O)N2CCOCC2)N(C)C(=O)[C@H](C2CCCC2)N(C)C(=O)C2(CCC2)NC(=O)[C@@H]2[C@@H](O)CCN2C(=O)[C@H](CCc2cc(F)c(C(F)(F)F)c(F)c2)NC(=O)CN(C)C(=O)[C@H](Cc2ccc(C(F)(F)F)cc2)N2CCCCC[C@@H](C2=O)N(C)C(=O)CN(C)C1=O [PP0872],A (a compound having 10 or more and less than 20 is denoted as A),A (a compound having 10 or more and less than 20 is denoted as A),
CC[C@H](C)[C@@H]1NC(=O)[C@H](CC(C)C)N(C)C(=O)C[C@@H](C(=O)N2CCOCC2)N(C)C(=O)[C@H](C2CCCC2)N(C)C(=O)C2(CCC2)NC(=O)[C@@H]2CC(F)(F)CN2C(=O)[C@H](CCc2ccc(C(F)(F)F)c(Cl)c2)NC(=O)CN(C)C(=O)[C@H](Cc2ccc(F)cc2)N2CCCCC[C@@H](C2=O)N(C)C(=O)CN(C)C1=O [PP0969],B (a compound having 3 or more and less than 10 is denoted as B),B (a compound having 3 or more and less than 10 is denoted as B),
